Tested on: enzyme dehydroxylating the hydroxyl group at the 9-position of urolithins
Experiment: Effect of cofactor on enzyme activity (DEAE fraction)
Type: biochemical, Clostridium bolteae JCM 12243 strain
Details: for Effect of cofactor on enzyme activity: cofactor individually added; for Relative activity: control without cofactor = 100%, DEAE fraction
Experimental: A 100 mM Gly/NaOH buffer (pH 9.5) containing 0.05 mg/mL of urolithin C, 5 mM of NADH, and 1 μM of DTT was mixed with a reaction solution for measuring the enzyme activity of each fraction corresponding to 40 mL of the medium to give a total volume of 500 μL, and the mixture was placed in a 1.5-mL tube. A gas phase in an anaerobic chamber was used as a gas phase (Vinyl Anaerobic Chamber available from Coy Labs), and the mixture was reacted at 45° C. for 13 to 18 hours. After completion of the reaction, 200 μL of N,N-dimethylacetamide containing 10% -formic acid was added and mixed. Then, the mixture was centrifuged (10,000 rpm. 4° C., 3 minutes), and the resulting supernatant was analyzed by HPLC.
Solutions were prepared to contain a cofactor in a concentration as shown in Table 2 in the reaction solution for measuring the enzyme activity described in Experimental Example 5, and urolithin A produced after the reaction was quantified. The DEAE fraction was used as the enzyme.
In addition, FAD refers to flavin adenine dinucleotide.

Compound | Effect of cofactor on enzyme activity | Relative activity (one cofactor at 10 mM) [%] | Relative activity (one cofactor at 0.2 mM) [%]
NC(=O)C1=CN([C@@H]2O[C@H](COP(=O)(O)OP(=O)(O)OC[C@H]3O[C@@H](n4cnc5c(N)ncnc54)[C@H](O)[C@@H]3O)[C@@H](O)[C@H]2O)C=CC1 [No. 2, reduced nicotinamide adenine dinucleotide] | Increase in activity | 186 | –
Cc1cc2nc3c(=O)[nH]c(=O)nc-3n(C[C@H](O)[C@H](O)[C@H](O)COP(=O)(O)OP(=O)(O)OC[C@H]3O[C@@H](n4cnc5c(N)ncnc54)[C@H](O)[C@@H]3O)c2cc1C [No. 4, flavin adenine dinucleotide] | – | – | 95
Cc1cc2nc3c(=O)[nH]c(=O)nc-3n(C[C@H](O)[C@H](O)[C@H](O)COP(=O)(O)O)c2cc1C [No. 5, flavin mononucleotide] | – | – | 96
NC(=O)C1=CN([C@@H]2O[C@H](COP(=O)(O)OP(=O)(O)OC[C@H]3O[C@@H](n4cnc5c(N)ncnc54)[C@H](OP(=O)(O)O)[C@@H]3O)[C@@H](O)[C@H]2O)C=CC1 [No. 3, reduced nicotinamide adenine dinucleotide phosphate] | Increase in activity | 161 | –
